From patent US8431596B2 (Cancer Research Technology Limited, priority 2007, dated 2013) come the findings set out here.

In general, IC50 refers to the concentration at which inhibition is half-maximal.

The target in the experiment is T1, AXL (human catalytic domain) (Homo sapiens, UniProt P30530).
T1 construct: purchased Upstate Ltd. 14-512
T1 sequence (P30530 473-894): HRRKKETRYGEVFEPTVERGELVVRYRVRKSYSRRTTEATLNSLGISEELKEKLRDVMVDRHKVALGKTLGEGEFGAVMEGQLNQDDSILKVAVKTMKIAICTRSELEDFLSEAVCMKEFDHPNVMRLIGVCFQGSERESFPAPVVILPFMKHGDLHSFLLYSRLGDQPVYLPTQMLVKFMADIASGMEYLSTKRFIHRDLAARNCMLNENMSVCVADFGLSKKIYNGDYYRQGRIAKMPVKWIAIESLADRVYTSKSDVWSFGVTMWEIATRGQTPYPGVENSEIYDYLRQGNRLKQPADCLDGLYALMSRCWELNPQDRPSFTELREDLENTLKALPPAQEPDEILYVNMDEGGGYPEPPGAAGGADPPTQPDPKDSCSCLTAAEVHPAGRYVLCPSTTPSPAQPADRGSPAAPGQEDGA
Briefly: AXL (human catalytic domain) Enzyme Activity Assay (IMAP fluorescence polarisation). In kind it is biochemical. The method, boiled down:
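IMAP FP readout (Ex485/Em535, after overnight binding) measured inhibition of the human AXL catalytic domain (aa473-894, 15 nM final) acting on 100 nM 5FAM-CSK-tide at 150 μM ATP, equal to KM. Reactions ran 60 min at room temperature in pH 7.0 HEPES buffer; IC50 from 10-point curves.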

The mark [1] stands for this setting: further data set (WW-001 through WW-169, XX-001 through XX-469, YY-001 through YY-016, ZZ-001 through ZZ-003), 150 μM ATP.
Setting [2] is: first data set, recombinant AXL isoform 1 aa473-894, 150 μM ATP.

Several values for one entry are separate records, joined by “and”; a condition that tells them apart may be missing. Equal values may be shown once.

As for `CCCNC(=O)Cn1cc(-c2cccc3nc(Nc4ccc(OCCN5CCCC5)cc4)nn23)cn1` [XX-441], the IC50 under setting [1] fell in the range of 100 to 1000 nM. Regarding `c1cncc(CNc2cccc(-c3cccc4nc(Nc5ccc(OCCN6CCCC6)cc5)nn34)c2)c1` [XX-442], the IC50 under setting [1] fell in the range of 100 to 1000 nM.

As to `Fc1ccc(CNc2cccc(-c3cccc4nc(Nc5ccc(OCCN6CCCC6)cc5)nn34)c2)nc1` [XX-443], the IC50 under setting [1] was in the range of 100 to 1000 nM.

The compound `c1cc(NCC2CC2)cc(-c2cccc3nc(Nc4ccc(OCCN5CCCC5)cc4)nn23)c1` [XX-444] had an IC50 under setting [1] of 100 to 1000 nM. Still for that read-out and setting: next, `c1ccc(-c2cc(CNc3cccc(-c4cccc5nc(Nc6ccc(OCCN7CCCC7)cc6)nn45)c3)no2)cc1` [XX-445]: 100 to 1000 nM; `Cc1cc(CNc2cccc(-c3cccc4nc(Nc5ccc(OCCN6CCCC6)cc5)nn34)c2)no1` [XX-446]: 100 to 1000 nM; `c1cc(NCc2nc3c(s2)CCCC3)cc(-c2cccc3nc(Nc4ccc(OCCN5CCCC5)cc4)nn23)c1` [XX-447]: 100 to 1000 nM.

Under setting [1], `FC(F)(F)c1ccc(CNc2cccc(-c3cccc4nc(Nc5ccc(OCCN6CCCC6)cc5)nn34)c2)o1` [XX-448] came in with an IC50 of 100 to 1000 nM. Turning to `Cc1ncc(CNc2cccc(-c3cccc4nc(Nc5ccc(OCCN6CCCC6)cc5)nn34)c2)n1C` [XX-449], the IC50 under setting [1] fell in the range of 100 to 1000 nM. Still for that read-out and setting: the value for `COc1cc(CNc2cccc(-c3cccc4nc(Nc5ccc(OCCN6CCCC6)cc5)nn34)c2)cc(OC)c1` [XX-450] was 100 to 1000 nM; that for `COc1ccccc1CNc1cccc(-c2cccc3nc(Nc4ccc(OCCN5CCCC5)cc4)nn23)c1` [XX-451] was 100 to 1000 nM; that for `COc1cccc(CNc2cccc(-c3cccc4nc(Nc5ccc(OCCN6CCCC6)cc5)nn34)c2)c1` [XX-452] was 100 to 1000 nM. `COc1ccc(CNc2cccc(-c3cccc4nc(Nc5ccc(OCCN6CCCC6)cc5)nn34)c2)cc1` [XX-453] registered an IC50 under setting [1] of 100 to 1000 nM.

Under setting [1], `Cc1ccccc1CNc1cccc(-c2cccc3nc(Nc4ccc(OCCN5CCCC5)cc4)nn23)c1` [XX-454] gave an IC50 of 100 to 1000 nM. The same measure, in the same setting: the value for `Cc1cccc(CNc2cccc(-c3cccc4nc(Nc5ccc(OCCN6CCCC6)cc5)nn34)c2)c1` [XX-455] was 1000 to 10000 nM; that for `Fc1ccc(CNc2cccc(-c3cccc4nc(Nc5ccc(OCCN6CCCC6)cc5)nn34)c2)cc1` [XX-456] was 100 to 1000 nM; that for `Cc1ccc(COc2cccc(-c3cccc4nc(Nc5ccc(OCCN6CCCC6)cc5)nn34)c2)cc1` [XX-457] was 1000 to 10000 nM.

With `Cn1nc(COc2cccc(-c3cccc4nc(Nc5ccc(OCCN6CCCC6)cc5)nn34)c2)cc1-c1ccccc1` [XX-459], the IC50 under setting [1] lay in the range of 1000 to 10000 nM. Under setting [1], `Cc1cc(COc2cccc(-c3cccc4nc(Nc5ccc(OCCN6CCCC6)cc5)nn34)c2)nn1C` [XX-460] had an IC50 of 100 to 1000 nM.

Consider `COc1ccc(-c2nc(COc3cccc(-c4cccc5nc(Nc6ccc(OCCN7CCCC7)cc6)nn45)c3)no2)cc1` [XX-461], for which the IC50 under setting [1] fell in the range of 1000 to 10000 nM. `O=C(NCc1ccc(Cl)cc1)c1cccc(-c2cccc3nc(Nc4ccc(OCCN5CCCC5)cc4)nn23)c1` [XX-462, N-(4-Chloro-benzyl)-3-{2-[4-(2-pyrrolidin-1-yl-ethoxy)-phenylamino]-[1,2,4]triazolo[1,5-a]pyridin-5-yl}-benzamide] returned an IC50 under setting [1] of 1000 to 10000 nM.

`Cc1ccc(-c2cccc(-c3cccc4nc(Nc5ccc(OCCN6CCCC6)cc5)nn34)c2)s1` [XX-463]: the half-inhibitory concentration (IC50) under setting [1] is 1000 to 10000 nM.

In turn, `Cc1noc(C)c1-c1cccc(-c2cccc3nc(Nc4ccc(OCCN5CCCC5)cc4)nn23)c1` [XX-464] had a half-inhibitory concentration (IC50) under setting [1] of 100 to 1000 nM.

For the compound `Cc1ccc(-c2cccc(-c3cccc4nc(Nc5ccc(OCCN6CCCC6)cc5)nn34)c2)cc1` [XX-465], under setting [1], the IC50 lay within 1000 to 10000 nM. In turn, `c1cc(-c2ccncc2)cc(-c2cccc3nc(Nc4ccc(OCCN5CCCC5)cc4)nn23)c1` [XX-466] yielded an IC50 under setting [1] of 100 to 1000 nM. The same measure, in the same setting: the value for `Fc1ccc(-c2cccc(-c3cccc4nc(Nc5ccc(OCCN6CCCC6)cc5)nn34)c2)cc1` [XX-467] was 1000 to 10000 nM. For the compound `COc1ccc(-c2cccc(-c3cccc4nc(Nc5ccc(OCCN6CCCC6)cc5)nn34)c2)cc1` [XX-468], the 50% inhibitory concentration (IC50) under setting [1] lay within 1000 to 10000 nM.

In turn, `c1cc(-c2cncnc2)cc(-c2cccc3nc(Nc4ccc(OCCN5CCCC5)cc4)nn23)c1` [XX-469] had an IC50 under setting [1] of 100 to 1000 nM. Take `COc1ccc(-c2nccc3nc(Nc4ccc(OCCN5CCCCC5)cc4)nn23)cc1` [YY-002]: the half-inhibitory concentration (IC50) was below 1000 nM under setting [2] and at most 100 nM under setting [1]. For the compound `COc1ccc(-c2nccc3nc(Nc4ccc(OCCN(C)C)cc4)nn23)cc1` [YY-003], the IC50 by setting is: under setting [2], < 1000 nM and 105 nM; under setting [1], 100 to 1000 nM. As to `COc1ccc(-c2nccc3nc(Nc4ccc(C(=O)NCCN(C)C)cc4)nn23)cc1` [YY-004], the half-maximal inhibitory concentration (IC50) is, setting by setting: under setting [2], below 1000 nM; under setting [1], at most 100 nM. `CCOc1ccc(-c2nccc3nc(Nc4cccc(OCCN(CC)CC)c4)nn23)cc1` [YY-005] gave an IC50 under setting [1] of 1000 to 10000 nM. The same measure, in the same setting: next, `CCOc1ccc(-c2nccc3nc(Nc4ccc(OCCN5CCCC5)c(OC)c4)nn23)cc1` [YY-006]: 100 to 1000 nM; `CCOc1ccc(-c2nccc3nc(Nc4ccc(OCCN5CCCC5)cc4)nn23)cc1` [YY-007]: 100 to 1000 nM; `COc1cc(Nc2nc3ccnc(-c4ccc5c(c4)OCCO5)n3n2)ccc1OCCN1CCCC1` [YY-008]: 100 to 1000 nM. `CCN(CC)CCOc1cccc(Nc2nc3ccnc(-c4ccc5c(c4)OCCO5)n3n2)c1` [YY-009] had an IC50 under setting [1] of 100 to 1000 nM.

In the case of `c1cc2nc(Nc3ccc(OCCN4CCCC4)cc3)nn2c(-c2ccc3c(c2)OCCO3)n1` [YY-010], under setting [1], the IC50 lay within 100 to 1000 nM.

In the case of `c1ccc(Cn2cc(-c3nccc4nc(Nc5ccc(OCCN6CCCC6)cc5)nn34)cn2)cc1` [YY-011, [5-(1-Benzyl-1H-pyrazol-4-yl)-[1,2,4]triazolo[1,5-c]pyrimidin-2-yl]-[4-(2-pyrrolidin-1-yl-ethoxy)-phenyl]-amine], under setting [1], the IC50 was 100 to 1000 nM.

For `FC(F)(F)c1ccc(-c2nccc3nc(Nc4ccc(OCCN5CCCC5)cc4)nn23)cc1` [YY-013], the 50% inhibitory concentration (IC50) under setting [1] fell in the range of 100 to 1000 nM. In the case of `Cc1ccc(-c2nccc3nc(Nc4ccc(OCCN5CCCC5)cc4)nn23)cc1F` [YY-014], the IC50 under setting [1] is at most 100 nM. In the case of `Cc1cc(C)cc(-c2nccc3nc(Nc4ccc(OCCN5CCCC5)cc4)nn23)c1` [YY-015], the IC50 under setting [1] is 100 to 1000 nM. With `CCN(CC)CCOc1cc(Nc2nc3ccnc(-c4cnn(Cc5ccccc5)c4)n3n2)ccn1` [YY-016], the IC50 under setting [1] was 1000 to 10000 nM. Take `O=C(Nc1nc2ccnc(-c3ccc4c(c3)OCCO4)n2n1)C1CC1` [ZZ-001, Cyclopropanecarboxylic acid [5-(2,3-dihydro-benzo[1,4]dioxin-6-yl)-[1,2,4]triazolo[1,5-c]pyrimidin-2-yl]-amide]: the half-inhibitory concentration (IC50) is 364 nM under setting [2] and 100 to 1000 nM under setting [1]. Consider `CCOc1ccc(-c2nccc3nc(NC(=O)C4CC4)nn23)cc1` [ZZ-002], for which, under setting [1], the IC50 fell in the range of 100 to 1000 nM. In turn, `COc1ccc(-c2nccc3nc(NC(=O)C4CC4)nn23)cc1` [ZZ-003] gave an IC50 under setting [1] of 1000 to 10000 nM.
